{"source": "paper PMC7076013", "about": "(Scientific Reports, 2020)", "key": {"[1]": {"system": "four melanoma and four colon cancer cell lines", "experiment": "MTT and CV viability, whole panel of cell lines", "format": "cell-based", "details": "48 h", "description": "Both melanoma and colon cancer are tumor types tightly connected with inflammation, while the expression of COX-2 in the selected cell lines was highly variable. Since a lot of discrepancies were found in the literature concerning the expression of this enzyme[5],[48]–[53], both COX-1 and COX-2 expression was analyzed by Western blot. […] The cells were treated with a wide range of doses of 4a–c, 5, and 6 for 48 h and cell viability was determined by MTT (3-(4,5-dimethylthiazol-2-yl)-2,5-diphenyltetrazolium bromide) and CV (crystal violet) assays. The obtained IC50 values were similar for both assays (Table 1).\nReagents were obtained from Sigma (St. Louis, MO) unless indicated otherwise. […]\nS ystems, Minneapolis, MN USA). […] After being detached b y tr ypsinization, cells were seeded in defined number as follows: 2.5 × 10^3 cells/well in 96-well plates for viability assessment and 2 × 10^4 cells/well in 24-well plates for flow cytometry. […]\nBefore treatment, non- adherent cells were removed. Compounds 4a- c, 5 and 6 were dissolved in DMSO and stored at −20 °C for a m onth. […]\nThe number of viable cel ls in culture was estimated by the MTT (3-(4,5- dimethylthiazol- 2-yl ) - 2,5- diphenyltetrazolium bromide) and CV (crystal violet) tests. Cells were incubated in the presence of compounds 4a- c, 5 and 6 for 48 h, then the viability was measured as described.4 […]"}, "A375 cells [2]": {"system": "A375 cells", "experiment": "Intracellular NO (DAF), A375", "format": "cell-based, human", "details": "A375, 48 h; untreated 40 ± 7", "description": "Given that analogue 5 is designed for NO release, the intracellular release of nitric oxide and production of reactive oxygen species (ROS)/reactive nitrogen species (RNS) was measured by means of redox-sensitive dyes — 4-amino-5-methylamino-2′,7′-difluorofluorescein diacetate (DAF) and dihydrorhodamine-123 (DHR) — after exposure for 48 h (Fig. 11). […] It is well documented that highly intensified production of ROS/RNS is connected with extreme cell damage and consequent cell death, whereas moderate ROS production is involved in the regulation of intracellular processes often involved in cell cycle arrest, proliferation, and differentiation[63],[64]. Apart from the moderate intracellular NO release, it was important to evaluate whether 5 released NO extracellularly. The production of NO from a nitrate group is a three-electron reduction process that can happen by a number of possible 2e^– and 1e^– pathways, commonly involving the initial liberation of a nitrite. A common method of detecting the release of NO in the extracellular compartment is the detection of nitrite ions by the Griess reaction, which quantifies the nitrite resulting from the oxidation of NO[66],[67]. […] Introduction of a nitrate moiety was also found to be beneficial in the case of rofecoxib. […]"}, "A375 cells [3]": {"system": "A375 cells", "experiment": "Fluorescence microscopy of DAPI-stained cells, A375", "format": "cell-based, human", "details": "A375, 72 h", "description": "(§1) It was observed that the wound in the control of the A375 cells decreased from 172 ± 69 μm to 127 ± 13 μm, compared to the treated cells where it stayed at 177 ± 32 μm. […] (Fig. 10A).To confirm this, the cell proliferation rate was determined after 72 h of incubation in the presence of 5 of the carboxyfluorescein succinimidyl ester (CFSE)-stained cells. […] These findings were further confirmed by fluorescence microscopy of 4′,6-diamidino-2-phenylindole (DAPI)-stained cells (Fig. 10C), for which predominantly large nuclei with scarce nucleoli characteristic for interphase were observed on treatment of A375 cells with 5[60]. In addition, sporadic oblong nuclei with condensed chromatin, typical for apoptosis, were also observed (25 ± 9%). On the other hand in the DAPI-stained 518A2 cells typical apoptotic shrunken nuclei and apoptotic bodies were dominant (60 ± 2%)[61]. The different modes of action on the two melanoma cell lines indicate that cell specific characteristics define the outcome of the treatment with 5. […] Recent data on the compensatory proliferation in response to induced apoptotic cell death in the tumor tissue even favor a nonaggressive approach in the therapy of advanced malignancy."}, "518A2 cells": {"system": "518A2 cells", "experiment": "Scratch (wound healing) test, 518A2", "format": "cell-based, human", "details": "518A2, IC50 dose, 48 h", "description": "as §1, with “malignancy. […]” for “malignancy.”\n(§2) To quantify cell division rate, cells were incubated for 10 min at 37 °C in the presence of […]\n(§3) subsequentl y quantified using flow c ytomet r y. […]"}, "A375 cells [4]": {"system": "A375 cells", "experiment": "Scratch (wound healing) test, A375", "format": "cell-based, human", "details": "A375, treated cells, IC50 dose, 48 h; control decreased from 172 ± 69 to 127 ± 13", "description": "as §1, with “malignancy. […]” for “malignancy.”\nas §2, §3"}}, "data": [{"substance": "4-[4-(methylnitrooxy)phenyl]-3-(1,2-dicarba-closo-dodecaboranyl)furan-2(5 H)-one [Compound 5]", "values": [{"measurement": "effect on cell viability across tested cell lines", "setting": "[1]", "value": "highest decrease in cell viability in all of the melanoma cell lines"}, {"measurement": "intracellular NO, mean fluorescence (DAF)", "setting": "A375 cells [2]", "value": "60.5 ± 9.1"}, {"measurement": "oblong nuclei with condensed chromatin, typical for apoptosis (DAPI)", "setting": "A375 cells [3]", "value": "25 ± 9", "unit": "%"}, {"measurement": "wound in scratch test", "setting": "518A2 cells", "value": "impossible to distinguish the edges of the wound"}, {"measurement": "wound width in scratch test", "setting": "A375 cells [4]", "value": "177 ± 32", "unit": "μm"}]}]}
